Measurements reported in US20260209249A1, “NOVEL TRICYCLIC COMPOUND AS KRAS G12D INHIBITOR, AND USE THEREOF” (SK Biopharmaceuticals Co., priority 2022, published 2026).
pIC50: −log10 of the molar value.

Key:
[1] = molecular target: T1, GppNHp-KRAS G12D mutant protein (Homo sapiens, UniProt P01116, G12D); test: Differential scanning fluorimetry (DSF) binding affinity to GppNHp-KRAS G12D mutant protein; conditions: DSF thermal shift, 10 μM compound, 4 μg KRAS protein, 50 mM HEPES (pH 7.5)
T1 construct: purchased Daegu Gyeongbuk Medical Innovation Foundation (DGMIF), made to order
How it was run: (§1)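 Each sample held 4 μg recombinant KRAS G12D (GDP- or GppNHp-bound) and 10 μM compound, incubated 30 min at room temperature before adding 2× SYPRO Orange. The GDP form was run in kit buffer, the GppNHp form in 50 mM HEPES pH 7.5. Melt was 25–99 °C at 0.05 °C/s (580/623 nm), reported as ΔTm versus no compound.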

[2] = molecular target: T2, GDP-KRAS G12D mutant protein (Homo sapiens, UniProt P01116, G12D); test: Differential scanning fluorimetry (DSF) binding affinity to GDP-KRAS G12D mutant protein; conditions: DSF thermal shift, 10 μM compound, 4 μg KRAS protein
T2 construct: purchased Daegu Gyeongbuk Medical Innovation Foundation (DGMIF), made to order
How it was run: as §1

[3] = tested on: KRAS G12D mutant pancreatic cancer cell line AsPC-1; test: Cell viability assay using KRAS G12D mutant cells (AsPC-1, 3D culture, celltiter-glo 3D); format: cell-based; conditions: Homo sapiens, ASPC1, 5th day after compound treatment
Protocol: Test Example 3: Cell Viability Assay Using KRAS G12D Mutant Cells
The KRAS G12D mutant pancreatic cancer cell line AsPC-1 was obtained from the Korean Cell Line Bank (KCLB) and maintained in 100-mm dishes or T75 (75 cm^2) flasks using RPM11640+10% fetal bovine serum (FBS)+1% Penicillin-Streptomycin medium. The cells were cultured at 37° C. with 5% CO2. The number of viable cells was counted using Countess (Invitrogen).
When AsPC-1 cells reached 85-100% confluence in the flask, the cells were harvested using 1× trypsin/EDTA solution, and seeded into a 96-well plate for 3D culture at 1000 cells/100 μL/well. The next day, the compounds were diluted ⅕ with DMSO from 10 μM or 50 μM to 0.0001 μM or 0.0006 μM and treated 1:1 (v/v) in the plate where the cells were seeded.
Cell culture was terminated on the 5th day after compound treatment, and cell viability at each concentration was measured using the celltiter-glo 3D cell viability assay kit.
Cell viability assays were normalized to 100% for the DMSO-treated group and expressed as a percentage of the number of viable cells when treated with the compound.
Cell viability %=(average RLU of group treated with test substance−average RLU of untreated group)/(average RLU of group treated with DMSO−average RLU of untreated group)×100
The data were modeled using GraphPad Prism 9 (GraphPad Software) by applying a nonlinear regression curve fit with a four-parameter sigmoidal dose-response curve to determine cell viability as a function of compound concentration. The 50% inhibitory concentration (IC50) corresponds to the concentration at which the curve intersects the midpoint of cell viability. The results of the inhibitory effect of the compounds according to one embodiment of the present application on the viability of KRAS G12D mutant cells are presented in Table 4.

[4] = tested on: ERK phosphorylation (pERK) induced by KRAS G12D mutation; test: Inhibitory activity against ERK phosphorylation (pERK) induced by KRAS G12D mutation, immunofluorescence assay in AsPC-1 cells; format: cell-based; conditions: Homo sapiens, ASPC1, 3 h drug treatment, pERK (Thr202/Tyr204) signal normalized to DAPI
Description: Test Example 2: Measurement of Inhibitory Activity Against ERK Phosphorylation (pERK) Induced by KRAS G12D Mutation (Immunofluorescence Assay)
Immunofluorescence is a method used to detect specific substances within cells or tissues through antigen-antibody interactions, and allows for the identification of the presence or absence of specific proteins by using antibodies labeled with various fluorescent dyes. After a primary antibody that recognizes a specific protein selectively binds to the epitope, a fluorescent antibody (secondary antibody) is bound to the primary antibody.
It was confirmed as follows that the compounds according to an embodiment of the present application inhibit phosphorylation of extracellular signal-regulated kinases (Phospho-ERK, pERK) induced by KRAS G12D mutation.
AsPC-1 cells were seeded at a density of 10,000 cells/well in RPMI-1640 medium containing 10% FBS and 1% Penicillin-Streptomycin in 384-well plates (Perkinelmer, #6057300) and allowed to attach for 16 h. After the cells attached to the plate, the cells were treated with drugs at a maximum concentration of 10 μM with a 3-fold serial dilution. After 3 h of drug treatment, the medium was removed and the cells were treated with 50 μL of 4% formaldehyde (Biosesang, #PC2031-050-00) for 20 min and washed three times with 50 μL of phosphate buffered saline (PBS).
50 μL of PBS containing 0.3% Triton X-100 (Sigma, #T8787-250 mL) was added and reacted for 20 minutes to allow antibody penetration into cells, and then the plate was washed three times with 50 μL of PBS. To block nonspecific binding of antibodies to the plate, 50 μL of PBS containing 2% BSA (sigma, #A7906-500G) and 0.01% Tween-20 (Sigma, #P1379-500 mL) (hereinafter referred to as PBS-T) was added, and reacted at room temperature for 2 hours.
To detect pERK, the primary antibody (cell signaling, #9101) was diluted 1:500 in PBS-T containing 2% BSA, 50 μL was added, and the plate was stored in a refrigerator at 4° C. for 16 hours to react, followed by washing three times with 50 μL of PBS-T. To visualize the primary antibody, the secondary antibody, i.e., anti-rabbit-Alexa Fluor 488 (ThermoFisher, #A11008), was diluted 1:1000 in PBS-T containing 2% BSA, 50 μL was added, and after reaction at room temperature for 1 hour, the plate was washed three times with 50 μL of PBS-T. Next, to visualize the nuclei of cells, DAPI (Thermofisher, #62248, 1 mg/mL) was diluted 1:1000 in PBS-T, 50 μL each was added, reacted at room temperature for 10 minutes, and washed three times with 50 μL of PBS-T. 50 μL of PBS-T was added to each well, and the plate was read for fluorescence value using HCS equipment (MOLECULAR DEVICES/ImageXpress Micro).
Data analysis was performed by normalizing the pERK (Thr202/Tyr204) signal to the DAPI signal and calculating the percentage relative to the DMSO as a control. The IC50 value was determined by fitting a four-parameter dose-response curve using the GraphPad Prism software (version 8.4.3), and interpolating the concentration at which 50% inhibition occurred. The results of calculating the inhibitory efficacy of the compounds according to one embodiment of the present application against KRAS G12D mutation-induced pERK activity are shown in Table 3.

Row | SMILES | GppNHp-KRAS G12D (ΔTmD, ° C.) [1] | GDP-KRAS G12D (ΔTmD, ° C.) [2] | pIC50 [3] | pIC50 [4]
1 | C#Cc1c(F)ccc2cc(O)cc(-c3c(F)c4nc(OC[C@]56CC(=C)CN5C[C@@H](F)C6)nc(N5C[C@H]6CC[C@@H](C5)N6)c4c4cn(C)nc34)c12 [Example 100, 4-(9-((1 R,5S)-3,8-diazabicyclo[3.2.1]octan-3-yl)-5-fluoro-7-(((2S,7aR)-2-fluoro-6-methylenetetrahydro-1H-pyrrolizin-7a(5H)-yl)methoxy)-2-methyl-2H-pyrazolo[4,3-n]quinazolin-4-yl)-5-ethynyl-6-fluoronaphthalen-2-ol] | 8.92 °C | 14.50 °C | 7.54 | 
2 | C#Cc1c(F)ccc2cc(N)cc(-c3c(F)c4nc(OC[C@@]56CCCN5CC(=C(F)F)C6)nc(N5C[C@H]6CC[C@@H](C5)N6)c4c4cn(C)nc34)c12 [Example 99, 4-(9-((1R,5S)-3,8-diazabicyclo[3.2.1]octan-3-yl)-7-(((S)-2-(difluoromethylene)tetrahydro-1H-pyrrolizin-7a(5H)-yl)methoxy)-5-fluoro-2-methyl-2H-pyrazolo[4,3-f]quinazolin-4-yl)-5-ethynyl-6-fluoronaphthalen-2-amine] | 7.27 °C | 11.13 °C | 7.57 | 
3 | CCc1c(F)ccc2cc(O)cc(-c3cc4nc(OC[C@@]56CCCN5C[C@H](F)C6)nc(N5C[C@H]6CC[C@@H](C5)N6)c4c4cn(C)nc34)c12 [Example 83, 4-(9-((1R,5S)-3,8-diazabicyclo[3.2.1]octan-3-yl)-7-(((2R,7aS)-2-fluorotetrahydro-1H-pyrrolizin-7a(5H)-yl)methoxy)-2-methyl-2H-pyrazolo[4,3-f]quinazolin-4-yl)-5-ethyl-6-fluoronaphthalen-2-ol] | 5.76 °C | 10.06 °C |  | 7.00
4 | Cc1cc2c(o1)c(-c1ccc(F)c3sc(N)c(C#N)c13)c(F)c1nc(OC[C@@]34CCCN3C[C@H](F)C4)nc(N3C[C@H]4CC[C@@H](C3)N4)c12 [Example 62, 4-(1-((1R,5S)-3,8-diazabicyclo[3.2.1]octan-3-yl)-5-fluoro-3-(((2R,7aS)-2-fluorotetrahydro-1H-pyrrolizin-7a(5H)-yl)methoxy)-8-methylfuro[3,2-f]quinazolin-6-yl)-2-amino-7-fluorobenzo[b]thiophene-3-carbonitrile] | 8.57 °C | 9.01 °C |  | 6.20
5 | C#Cc1c(F)ccc2cc(O)cc(-c3cc4nc(OCC5(CN6C[C@H]7C[C@@H]6CO7)CC5)nc(N5C[C@H]6CC[C@@H](C5)N6)c4n4ccnc34)c12 [Example 10, 4-(3-((1-(((1 R,4R)-2-oxa-5-azabicyclo[2.2.1]heptan-5-yl)methyl)cyclopropyl)methoxy)-1-((1 R,5S)-3,8-diazabicyclo[3.2.1]octan-3-yl)imidazo[1′,2′:1,6]pyrido[3,2-d]pyrimidin-6-yl)-5-ethynyl-6-fluoronaphthalen-2-ol] | 2.79 °C | 9.00 °C |  | 5.68
6 | C#Cc1c(F)ccc2cc(O)cc(-c3c(F)c4nc(OCC5(CN6CC[C@@H](F)C6)CCC5)nc(N5C[C@H]6CC[C@@H](C5)N6)c4c4cn(C)nc34)c12 [Example 98, 4-(9-((1R,5S)-3,8-diazabicyclo[3.2.1]octan-3-yl)-5-fluoro-7-((1-(((R)-3-fluoropyrrolidin-1-yl)methyl)cyclobutyl)methoxy)-2-methyl-2H-pyrazolo[4,3-f]quinazolin-4-yl)-5-ethynyl-6-fluoronaphthalen-2-ol] | 5.79 °C | 11.43 °C | 6.96 | 
7 | Cn1cc2c(n1)c(-c1cc(O)cc3ccccc13)cc1nc(OC[C@@]34CCCN3C[C@H](F)C4)nc(N3C[C@H]4CC[C@@H](C3)N4)c12 [Example 68, 4-(9-((1R,5S)-3,8-diazabicyclo[3.2.1]octan-3-yl)-7-(((2R,7aS)-2-fluorotetrahydro-1H-pyrrolizin-7a(5H)-yl)methoxy)-2-methyl-2H-pyrazolo[4,3-f]quinazolin-4-yl)naphthalen-2-ol] | 1.90 °C | 5.75 °C |  | 5.04
8 | CN(C)C1(CNc2nc(OC[C@@]34CCCN3C[C@H](F)C4)nc3cc(-c4cc(O)cc5ccc(F)c(F)c45)c4nccn4c23)CCC1 [Example 5, 4-(1-(((1-(dimethylamino)cyclobutyl)methyl)amino)-3-(((2R,7aS)-2-fluorotetrahydro-1H-pyrrolizin-7a(5H)-yl)methoxy)imidazo[1′,2′:1,6]pyrido[3,2-d]pyrimidin-6-yl)-5,6-difluoronaphthalen-2-ol] | 1.60 °C | 4.27 °C |  | 6.02
9 | CCc1c(F)ccc2cc(O)cc(-c3c(F)c4nc(OC[C@@]56CCCN5CC(=C(F)F)C6)nc(N5C[C@H]6CC[C@@H](C5)N6)c4c4cn(C)nc34)c12 [Example 97, 4-(9-((1R,5S)-3,8-diazabicyclo[3.2.1]octan-3-yl)-7-(((S)-2-(difluoromethylene)tetrahydro-1H-pyrrolizin-7a(5H)-yl)methoxy)-5-fluoro-2-methyl-2H-pyrazolo[4,3-f]quinazolin-4-yl)-5-ethyl-6-fluoronaphthalen-2-ol] | 8.42 °C | 14.20 °C | 8.15 | 
10 | Cn1cc2c(n1)c(-c1cc(O)cc3ccc(F)c(F)c13)cc1nc(OC[C@@]34CCCN3C[C@H](F)C4)nc(N3C[C@H]4CC[C@@H](C3)N4)c12 [Example 70, 4-(9-((1R,5S)-3,8-diazabicyclo[3.2.1]octan-3-yl)-7-(((2R,7aS)-2-fluorotetrahydro-1H-pyrrolizin-7a(5H)-yl)methoxy)-2-methyl-2H-pyrazolo[4,3-f]quinazolin-4-yl)-5,6-difluoronaphthalen-2-ol] | 3.38 °C | 6.34 °C |  | 6.13
